Source: PubChem BioAssay (NCI)
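Where inhibition never reached the appropriate level, the endpoint shown equals the highest concentration tested. Otherwise, values were interpolated linearly from a five-concentration, 48-hour dose response in 96-well plates. TGI denotes the concentration required for complete inhibition of growth.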

Columns and labels:
Assay in all cases: NCI-60 cell line screen, 48 h
SF-295 CNS = test system: SF-295 CNS
A498 renal = test system: A498 renal
RPMI-8226 leukemia = test system: RPMI-8226 leukemia
SK-MEL-28 melanoma = test system: SK-MEL-28 melanoma
UO-31 renal = test system: UO-31 renal
OVCAR-5 ovarian = test system: OVCAR-5 ovarian
U251 CNS = test system: U251 CNS
BT-549 breast = test system: BT-549 breast
SW-620 colon = test system: SW-620 colon
OVCAR-8 ovarian = test system: OVCAR-8 ovarian
KM12 colon = test system: KM12 colon
SK-MEL-5 melanoma = test system: SK-MEL-5 melanoma
SN12C renal = test system: SN12C renal
DU-145 prostate = test system: DU-145 prostate
NCI-H460 lung = test system: NCI-H460 lung
NCI-H522 lung = test system: NCI-H522 lung
HCT-15 colon = test system: HCT-15 colon
SNB-75 CNS = test system: SNB-75 CNS
PC-3 prostate = test system: PC-3 prostate
MDA-MB-435 = test system: MDA-MB-435
SF-268 CNS = test system: SF-268 CNS
COLO 205 colon = test system: COLO 205 colon
SF-539 CNS = test system: SF-539 CNS
MDA-N = test system: MDA-N
EKVX NSCLC = test system: EKVX NSCLC
OVCAR-3 ovarian = test system: OVCAR-3 ovarian
HOP-92 NSCLC = test system: HOP-92 NSCLC
SR leukemia = test system: SR leukemia
CAKI-1 renal = test system: CAKI-1 renal
HS 578T breast = test system: HS 578T breast
SK-OV-3 ovarian = test system: SK-OV-3 ovarian
UACC-62 melanoma = test system: UACC-62 melanoma
786-0 renal = test system: 786-0 renal
SNB-19 CNS = test system: SNB-19 CNS
RXF 393 renal = test system: RXF 393 renal
HOP-62 NSCLC = test system: HOP-62 NSCLC
HL-60(TB) leukemia = test system: HL-60(TB) leukemia
TK-10 renal = test system: TK-10 renal
HCT-116 colon = test system: HCT-116 colon
MOLT-4 leukemia = test system: MOLT-4 leukemia
NCI-H23 lung = test system: NCI-H23 lung
HT29 colon = test system: HT29 colon
ACHN renal = test system: ACHN renal
HCC-2998 colon = test system: HCC-2998 colon
MALME-3M melanoma = test system: MALME-3M melanoma
A549 NSCLC = test system: A549 NSCLC
M14 melanoma = test system: M14 melanoma
OVCAR-4 ovarian = test system: OVCAR-4 ovarian
UACC-257 melanoma = test system: UACC-257 melanoma
IGROV1 ovarian = test system: IGROV1 ovarian
CCRF-CEM leukemia = test system: CCRF-CEM leukemia
NCI-H226 lung = test system: NCI-H226 lung
LOX IMVI melanoma = test system: LOX IMVI melanoma
K-562 leukemia = test system: K-562 leukemia
T-47D breast = test system: T-47D breast

Measured: TGI

COC(C)(C)C1(O)CCC(C)CC1=O (centres undefined)
not listed: CCRF-CEM leukemia | NCI-H226 lung | LOX IMVI melanoma | K-562 leukemia | T-47D breast
> 100 µM: all other assays above

O=C(O)CCC(=O)c1ccc(Cl)cc1
not listed: A498 renal | U251 CNS | BT-549 breast | NCI-H460 lung | NCI-H522 lung | HCT-15 colon | PC-3 prostate | SF-268 CNS | HS 578T breast | UACC-62 melanoma | TK-10 renal | NCI-H23 lung | ACHN renal | HCC-2998 colon | MALME-3M melanoma | UACC-257 melanoma
> 100 µM: all other assays above
